From patent publication US6787569B1, “Therapeutic guanidines” (Cambridge NeuroScience, Inc., priority 1994, dated 2004)
Structures can show the parent of a compound that is named as a salt. Where two headings read alike, the source gives them in different places.

Assays:
[1] = tested on: depolarization-induced 3H-glutamate release from brain nerve terminals; assay: Inhibition of 3H-glutamate release, high [K+] depolarization, rapid superfusion of synaptosomes; assay type: biochemical; details: rat brain synaptosomes; for % Inhibition of ^3H-Glu Rel @ 3 μM: 3 μM compound; for % Inhibition of ^3H-Glu Rel @ 1 μM: 1 μM compound
[2] = target: Type II neuronal voltage-activated sodium channels (Rattus norvegicus, UniProt P04775); assay: cell-based
Sequence of Type II neuronal voltage-activated sodium channels (P04775 whole entry): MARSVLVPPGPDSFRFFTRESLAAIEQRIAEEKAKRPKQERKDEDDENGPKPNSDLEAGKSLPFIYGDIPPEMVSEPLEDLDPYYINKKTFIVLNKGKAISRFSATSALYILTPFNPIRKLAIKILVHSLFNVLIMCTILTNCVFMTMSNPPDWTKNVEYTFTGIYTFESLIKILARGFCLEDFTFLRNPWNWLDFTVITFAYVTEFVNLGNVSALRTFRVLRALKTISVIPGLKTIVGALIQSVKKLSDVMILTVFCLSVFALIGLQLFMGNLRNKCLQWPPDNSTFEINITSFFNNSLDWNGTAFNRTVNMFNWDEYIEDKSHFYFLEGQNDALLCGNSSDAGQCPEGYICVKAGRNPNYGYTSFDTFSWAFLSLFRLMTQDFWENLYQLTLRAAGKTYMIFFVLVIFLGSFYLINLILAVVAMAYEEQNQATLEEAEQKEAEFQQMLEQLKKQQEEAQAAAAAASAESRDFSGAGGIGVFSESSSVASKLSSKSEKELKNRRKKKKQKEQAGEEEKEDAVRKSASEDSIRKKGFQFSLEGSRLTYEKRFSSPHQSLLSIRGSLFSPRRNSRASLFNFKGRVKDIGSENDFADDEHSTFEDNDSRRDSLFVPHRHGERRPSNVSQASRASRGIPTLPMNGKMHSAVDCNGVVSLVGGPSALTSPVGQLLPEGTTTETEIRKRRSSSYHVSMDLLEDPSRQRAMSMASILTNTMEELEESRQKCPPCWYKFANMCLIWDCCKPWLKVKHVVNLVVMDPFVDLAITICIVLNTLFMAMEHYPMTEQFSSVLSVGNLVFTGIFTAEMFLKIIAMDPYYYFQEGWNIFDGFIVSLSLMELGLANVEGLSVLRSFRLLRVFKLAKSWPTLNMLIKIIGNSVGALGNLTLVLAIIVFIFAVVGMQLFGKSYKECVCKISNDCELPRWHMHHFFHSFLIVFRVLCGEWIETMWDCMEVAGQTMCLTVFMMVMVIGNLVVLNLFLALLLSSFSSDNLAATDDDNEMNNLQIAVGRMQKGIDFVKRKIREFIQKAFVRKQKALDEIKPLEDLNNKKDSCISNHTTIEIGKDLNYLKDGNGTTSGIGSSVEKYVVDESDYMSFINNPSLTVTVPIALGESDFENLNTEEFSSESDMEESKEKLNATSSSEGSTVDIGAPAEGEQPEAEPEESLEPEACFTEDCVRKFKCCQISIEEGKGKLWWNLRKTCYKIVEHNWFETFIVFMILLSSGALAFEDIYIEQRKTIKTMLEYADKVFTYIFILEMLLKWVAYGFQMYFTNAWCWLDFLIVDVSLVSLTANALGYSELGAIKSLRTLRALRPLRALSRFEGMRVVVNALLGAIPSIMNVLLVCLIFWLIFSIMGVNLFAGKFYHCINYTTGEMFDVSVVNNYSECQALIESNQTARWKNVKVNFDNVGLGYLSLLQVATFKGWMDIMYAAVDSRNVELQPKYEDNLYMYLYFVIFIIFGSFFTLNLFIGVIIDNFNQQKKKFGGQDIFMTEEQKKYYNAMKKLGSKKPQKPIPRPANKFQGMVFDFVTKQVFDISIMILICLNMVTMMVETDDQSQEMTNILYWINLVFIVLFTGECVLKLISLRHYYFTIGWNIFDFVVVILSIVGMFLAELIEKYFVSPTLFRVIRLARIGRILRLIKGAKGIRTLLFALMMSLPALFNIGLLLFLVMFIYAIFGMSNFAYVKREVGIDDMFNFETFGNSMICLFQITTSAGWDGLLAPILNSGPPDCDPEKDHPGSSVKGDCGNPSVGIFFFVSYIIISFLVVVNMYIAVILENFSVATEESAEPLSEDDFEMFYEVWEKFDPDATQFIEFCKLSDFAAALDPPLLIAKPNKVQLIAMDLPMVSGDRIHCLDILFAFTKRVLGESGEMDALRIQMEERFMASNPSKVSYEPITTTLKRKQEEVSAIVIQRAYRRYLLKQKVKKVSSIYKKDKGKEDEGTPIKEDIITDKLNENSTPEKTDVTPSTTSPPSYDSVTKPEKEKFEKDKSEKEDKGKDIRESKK

L-type Ca channels = assay: Inhibition of 45Ca uptake through L-type (dihydropyridine-sensitive) calcium channels in GH4C1 pituitary cells; assay type: cell-based
Experimental: Compounds of the invention representative of each of the major classes of agents claimed herein were tested to determine their ability to inhibit voltage-activated, dihydropyridine-sensitive L-type calcium channels in clonal GH4C1 pituitary cells. Said voltage-activated L-type calcium channels are found in cardiac muscle, vascular smooth muscle, and the cardiac Purkije cell conduction system. They are the sites of action of the major classes of Ca antagonists employed to treat hypertension, angina, cardiac arrhythmias, and related disorders. L-type Ca channels are also the sites of action of certain neuroprotective dihydropyridine Ca antagonists such as nimodipine.
The uptake of ^45Ca into GH4C1 cells was performed by an adaptation of the method of Tan, K. et al. (J. Biol. Chem., 259:418-426 (1984)). The principle of the method involves activating ion permeation through synaptosomal calcium channels by high K^+-induced depolarization of the synaptosomal preparation. The uptake of ^45Ca measured by this procedure is mediated by presynaptic L-type calcium channels, and is sensitive to dihydropyridine, phenylalkylamine, and benzothiazipine Ca antagonists at therapeutically relevant concentrations [Tashjian et al., ibid.]. The adaptation of the aforementioned method involves growing GH4C1 cells in 96-well culture plates, and is designed to provide a rapid and quantitative determination of the potency of various compounds in inhibiting ^45Ca uptake through L-type Ca channels.
GH4 cells, stored in liquid nitrogen, are suspended in 15 ml growth medium (Ham's F-10 medium plus 15% heat-inactivated horse serum and 2.5% heat-inactivated fetal bovine serum). The cells are centrifuged, resuspended, and then added to T-75 flasks containing 12-15 mls Growth Medium, and incubated at 37° C. for approximately 1 week. The cells are them removed from the T75 flask after dissociation from the walls of the flask by treatment for 5 minutes at 37° C. with 1 mg/ml Viocase. The Viocase is decanted, and the cells are resuspended in ˜200 ml of Growth Medium. The cells are then aliquoted (200 μl/well) into each well of several 96 well plates. The cells are then grown under the aforementioned conditions for 3-4 weeks, with replacement of Growth Medium occurring twice per week. Cells are fed growth medium 24 hours before they are employed for ^45Ca uptake determinations.
At the time of the assay, media Is aspirated from each 96-well plate using a manifold designed to allow 50 μL of liquid to remain in each well. Each plate is washed and aspirated twice with a low K^+ buffer solution “LKHBBS” (in mM 5 KCl, 145 NaCl, 10 Hepes, 1 MgCl2, […], 10 glucose, pH 7.4), 200 μl/well. Each plate is incubated for 10 minutes at 37° C., and aspirated as above. To each well of each plate, 50 μl of HBBS containing the drug to be tested in twice the final concentration is added. The plates are incubated for 10 minutes at room temperature. To each well of each plate, 50 μl of either of two solutions are added:
(a) LKHBBS containing 1 μCi of carrier-free ^45Ca, or
(b) HKHBBS (a high K^+ buffer containing 150 mM KCl and no NaCl, but otherwise identical to LKHBBS).
Each plate is then incubated for 5 minutes at room temperature, aspirated as above, and quenched with 200 μl/well of Quench Buffer (Ca-free LKHBBS containing 10 mM Tris-EGTA). Each plate is aspirated and rinsed with Quench Buffer a second time, then carefully aspirated to dryness. To each well of each plate 100 μl of High Safe II scintillation fluid is added. The plates are sealed, shaken, and subjected to scintillation spectrophotometry on a Microbeta 96-well Scintillation Counter (Wallac, Gaithersburg, Md., USA).
Net depolarization-induced ^45Ca uptake was determined for each concentration of each compound tested, as the difference between ^45Ca uptake in HKBBS and LK buffers. Results were plotted as % inhibition of depolarization-induced ^45Ca uptake vs. [compound] for each compound tested.

presynaptic Ca channels = assay: Inhibition of 45Ca uptake through presynaptic Ca channels in brain synaptosomes; assay type: biochemical, mammalian; details: high K+ depolarization-induced 45Ca uptake, read-out: IC50, block of ^45Ca uptake
Experimental: Compounds of the invention were tested to determine their ability to inhibit voltage-activated calcium channels in nerve terminals of mammalian brain. Said voltage-activated calcium channels directly control neurotransmitter release (see Nachsen, D. A. et al., J. Gen Physiol., 79:1065-1087 (1982)). The uptake of ^45Ca into brain synaptosomes was performed by an adaptation of the method of Nachsen and Blaustein (J. Physiol., 361:251-258 (1985)), as previously described [Goldin et al., PCT/US92/01050]. The principle of the method involves opening ion permeation through synaptosomal calcium channels by high K^+-induced depolarization of the synaptosomal preparation. The rapid component of ^45Ca uptake measured by this procedure is mediated by presynaptic calcium channels.
Briefly, synaptosomes are prepared by the method of Hajos (Brain Res., 93:485-489 (1975)). Freshly prepared synaptosomes (8 μl) were suspended In low potassium “LK” buffer (containing 3 mM KCl). Test compounds in 8 μl LK were added to synaptosomes to final concentrations ranging from 0.3 μM to 100 μM, and the mixture was preincubated for 5 minutes at room temperature. ^45Ca uptake was then initiated by adding isotope in either LK or in buffer (“HK”) containing high [potassium] (150 mM KCl). After 5 seconds, the ^45Ca uptake was stopped by adding 0.9 ml quench buffer (LK+10 mM EGTA). This solution was then filtered under vacuum and the filters washed with 15 ml of quench buffer.
Washed filters were subjected to scintillation spectrophotometry to determine the extent of ^45Ca uptake. Net depolarization-induced ^45Ca uptake was determined for each concentration of each compound tested, as the difference between ^45Ca uptake in HK and LK buffers. Results were plotted as % inhibition of depolarization-induced ^45Ca uptake vs. [compound] for each compound tested. Representative IC50 for inhibition of depolarization-induced ^45Ca uptake are presented below in the tables (2a-2d) below which together are identified as Table 2.

[3] = tested on: audiogenic seizures in DBA/2 mice; assay: In vivo anticonvulsant activity in the DBA/2 mouse model (audiogenic seizures); details: 30 minutes prior to auditory stimulus
Experimental: Compounds were tested for their effectiveness in preventing seizures in DBA/2 mice which have a unique sensitivity to auditory stimulation. Exposure to loud high-frequency sounds can trigger seizure activity in these animals. This sensitivity develops from postnatal day 12 and peaks around day 21 and slowly diminishes as the animals mature. The unusual response to auditory stimulation in this strain of mouse is believed to be due to a combination of early myelination (causing an unusually low excitatory threshold) and delayed development of inhibitory mechanisms. Glutamate, the predominant excitatory neurotransmitter, has been implicated in this response. Blockade of glutamate receptors of the NMDA and AMPA subtypes, prevents audiogenic seizures in these mice. Compounds that block the release of glutamate should similarly act to prevent seizure activity, and may be therapeutic in other neurologic disorders such as stroke, which also involves glutamate-mediated damage.
Mice were injected intraperitoneally with the compound specified in Table V below or with vehicle control, 30 minutes prior to being placed in a bell jar and turning on the auditory stimulus (12 KHz sine wave at 110-120 db). Administered doses are specified in Table V as milligram of compound per kilogram bodyweight of mouse. The auditory stimulus was left on for 60 seconds and mice reactions were timed and recorded.
Percentage inhibition was determined with reference to vehicle controls.

[4] = tested on: veratridine-induced 3H-glutamate release from brain nerve terminals (voltage-activated presynaptic Na channels); assay: Inhibition of veratridine-induced 3H-glutamate release, rapid superfusion of synaptosomes; assay type: biochemical, rat
[5] = high K+ depolarization-induced 45Ca uptake, read-out: IC50, block of ^45Ca uptake
[6] = veratridine (100 μM)-induced, tetrodotoxin-sensitive uptake, CHO cells expressing rat brain Type II Na channels, read-out: IC50, block of ^14C guanidinium uptake

SMILES	% Inhibition of ^3H-Glu Rel @ 3 μM [1]	IC50 (L-type Ca channels; [5])	IC50 (presynaptic Ca channels)	% Inhibition of ^3H-Glu Rel @ 1 μM [1]	IC50 [2, 6]	also measured
CCC(C)c1ccc(N(Cc2ccc(C(C)(C)C)cc2)C(=N)N)cc1 (stereo not shown) [Example 1, N-(4-sec-Butylphenyl)-N-(4-tert-butylbenzyl)guanidine.HCl]	61%	1700 nM	6100 nM			IC50 [2]: 800 nM; Audiogenic Response % Inhib. ([3]; 10 mg/kg intraperitoneally): 54%; Audiogenic Response % Inhib. ([3]; 20 mg/kg intraperitoneally): 80.5%; Audiogenic Response % Inhib. ([3]; 40 mg/kg intraperitoneally): 91%; % Inhibition of ^3H-Glu Rel @ 1 μM (*veratridine-induced glutamate release assay) ([4]; 1 μM compound, 50 μM veratridine-induced release, rat brain synaptosomes): 67* %
CC(C)(C)c1ccc(CN(C(=N)N)c2ccc3c4c(cccc24)CC3)cc1 [Example 2]	61%	2100 nM	8100 nM	52%	1000 nM	
N=C(Nc1ccc2c3c(cccc13)CC2)NC(c1ccccc1)c1ccccc1 [Example 3, N-(5-Acenaphthyl)-N′-benzhydrylguanidine.HCl]	53%	2700 nM				
CCC(C)c1ccc(NC(=N)Nc2ccc(C(C)CC)cc2)cc1 (stereo not shown) [Example 4, N,N′-bis(4-sec-Butylphenyl)guanidine.HCl]	85%	2100 nM	11200 nM	52%	800 nM	
CCC(C)c1ccc(N(C)C(=N)N(C)c2ccc(C(C)CC)cc2)cc1 (stereo not shown) [Example 6]	92%	4300 nM	5900 nM	71%		IC50 [2]: 600 nM
Br.N=C(Nc1ccc2c3c(cccc13)-c1ccccc1-2)Nc1ccc2c3c(cccc13)-c1ccccc1-2 [Example 9, N-N′-Bis(3-fluoroanthenyl)guanidine hydrobromide]			7800 nM		700 nM	% Inhibition of ^3H-Glu Rel @ 3 μM (*veratridine-induced glutamate release assay) [4]: 17* %
CC(C)(C)c1ccc(NC(=N)Nc2ccc(C(C)(C)C)cc2)cc1 [Example 13, N,N′-Bis(4-tort-butylphenyl)guanidine]	70%	4100 nM	1500 nM		900 nM	% Inhibition of ^3H-Glu Rel @ 1 μM (*veratridine-induced glutamate release assay) [4]: 62* %
COc1ccc(NC(=N)Nc2ccc(Cl)c(Cl)c2Cl)c2ccccc12.Cl [Example 15, N-(4-Methoxy-1-naphthyl)-N′-(2,3,4-trichlorophenyl)guanidine.HCl]	88%	1700 nM	1700 nM			
CC(C)c1ccc(CN(C(=N)N)c2ccc3c4c(cccc24)CC3)cc1 [Example 19, N-(5-Acenaphthyl)-N-(4-isopropylbenzyl)guanidine]		2100 nM				melting point: 153 to 155 °C; % Inhibition of ^3H-Glu Rel @ 3 μM (*veratridine-induced glutamate release assay) ([4]; 3 μM compound, 50 μM veratridine-induced release, rat brain synaptosomes): 81* %
COc1ccc([C@@H]2Sc3ccccc3N(CCN(C)C)C(=O)[C@@H]2OC(C)=O)cc1 [diltiazem, reference compound]						IC50 (L-type Ca channels; read-out: IC50, block of ^45Ca uptake, high K+ depolarization-induced 45Ca uptake): 19700 nM
